According to ChEMBL document CHEMBL5360560, “Anti-Vibrio potential of natural products from marine microorganisms” (Eur J Med Chem, 2023):
Values after ≈ are worked out from the molar mass of the structure shown.

Columns and labels:
Assay type in all cases: functional
Vibrio parahaemolyticus [1] = experiment: Antimicrobial activity against Vibrio parahaemolyticus QDIO-10 assessed as bacterial growth inhibition
Vibrio harveyi [2] = experiment: Antimicrobial activity against Vibrio harveyi QDIO-9 assessed as bacterial growth inhibition
Vibrio alginolyticus [3] = experiment: Antibacterial activity against Vibrio alginolyticus assessed as bacterial growth inhibition
Vibrio natriegens = experiment: Antimicrobial activity against Vibrio natriegens assessed as bacterial growth inhibition
Vibrio vulnificus [4] = experiment: Antimicrobial activity against Vibrio vulnificus MCCC E1758 assessed as bacterial growth inhibition by resazurin dye based assay
Vibrio vulnificus [5] = experiment: Antimicrobial activity against Vibrio vulnificus MCCC E333 assessed as bacterial growth inhibition by resazurin dye based assay
Vibrio ichthyoenteri = experiment: Antimicrobial activity against Vibrio ichthyoenteri assessed as bacterial growth inhibition
Vibrio parahaemolyticus [6] = experiment: Antimicrobial activity against Vibrio parahaemolyticus assessed as bacterial growth inhibition by MTT assay
Vibrio vulnificus [7] = experiment: Antimicrobial activity against Vibrio vulnificus assessed as bacterial growth inhibition by MTT assay
Vibrio parahaemolyticus [8] = experiment: Antimicrobial activity against Vibrio parahaemolyticus assessed as zone of inhibition
Vibrio anguillarum [9] = experiment: Antimicrobial activity against Vibrio anguillarum assessed as zone of inhibition
Vibrio splendidus = experiment: Antimicrobial activity against Vibrio splendidus assessed as zone of inhibition
Vibrio harveyi [10] = experiment: Antimicrobial activity against Vibrio harveyi assessed as zone of inhibition
Vibrio brasiliensis = experiment: Antimicrobial activity against Vibrio brasiliensis assessed as bacterial growth inhibition
Vibrio harveyi [11] = experiment: Antimicrobial activity against Vibrio harveyi QDIO-9 assessed as bacterial growth inhibition measured after 24 hrs by microtitre plate reader assay
Vibrio anguillarum [12] = experiment: Antimicrobial activity against Vibrio anguillarum QDIO-8 assessed as bacterial growth inhibition measured after 24 hrs by microtitre plate reader assay
Vibrio parahaemolyticus [13] = experiment: Antimicrobial activity against Vibrio parahaemolyticus QDIO-10 assessed as bacterial growth inhibition measured after 24 hrs by microtitre plate reader assay
Vibrio vulnificus [14] = experiment: Antimicrobial activity against Vibrio vulnificus MTCC1145 assessed as zone of inhibition in diameter per disc at 100 ug measured for 24 to 72 hrs; conditions: time 24-72 hrs, read-out: IZ
Vibrio parahaemolyticus [15] = experiment: Antimicrobial activity against Vibrio parahaemolyticus MTCC451 assessed as zone of inhibition in diameter per disc at 100 ug measured for 24 to 72 hrs; conditions: time 24-72 hrs, read-out: IZ
Vibrio parahaemolyticus [16] = experiment: Bactericidal activity against Vibrio parahaemolyticus ATCC 17802 assessed as bacterial growth inhibition mesured after 48 hrs by broth dilution assay
Vibrio parahaemolyticus [17] = experiment: Antimicrobial activity against Vibrio parahaemolyticus ATCC 17802 assessed as bacterial growth inhibition mesured after 48 hrs by broth dilution assay
Vibrio sp. = experiment: Antibacterial activity against Vibrio sp. assessed as bacterial growth inhibition relative to control
Vibrio vulnificus [18] = experiment: Antimicrobial activity against Vibrio vulnificus QDIO-7 assessed as bacterial growth inhibition by microplate reader assay
Vibrio harveyi [19] = experiment: Antimicrobial activity against Vibrio harveyi QDIO-7 assessed as bacterial growth inhibition by microplate reader assay
Vibrio vulnificus [20] = experiment: Antimicrobial activity against Vibrio vulnificus MISR 20716 assessed as bacterial growth inhibition measured after 24 hrs by broth microdilution assay
Vibrio alginolyticus [21] = experiment: Antimicrobial activity against Vibrio alginolyticus MISR 30816 assessed as bacterial growth inhibition measured after 24 hrs by broth microdilution assay
Vibrio parahaemolyticus [22] = experiment: Antimicrobial activity against Vibrio parahaemolyticus MISR 21116 assessed as bacterial growth inhibition measured after 24 hrs by broth microdilution assay
Vibrio cholerae = experiment: Antimicrobial activity against Vibrio cholerae assessed as bacterial growth inhibition
Vibrio parahaemolyticus [23] = experiment: Antimicrobial activity against Vibrio parahaemolyticus assessed as bacterial growth inhibition
Vibrio parahaemolyticus [24] = experiment: Antibacterial activity against Vibrio parahaemolyticus assessed as bacterial growth inhibition by agar dilution method
Vibrio vulnificus [25] = experiment: Antimicrobial activity against Vibrio vulnificus assessed as bacterial growth inhibition
Vibrio rotiferianus [26] = experiment: Antimicrobial activity against Vibrio rotiferianus assessed as bacterial growth inhibition
Vibrio campbellii [27] = experiment: Antimicrobial activity against Vibrio campbellii assessed as bacterial growth inhibition
Vibrio campbellii [28] = experiment: Antimicrobial activity against Vibrio campbellii MCCC E333 assessed as bacterial growth inhibition by resazurin dye based assay
Vibrio rotiferianus [29] = experiment: Antibacterial activity against Vibrio rotiferianus MCCC E385 assessed as bacterial growth inhibition measured after 24 hrs by resazurin dye based assay
Vibrio alginolyticus [30] = experiment: Antimicrobial activity against Vibrio alginolyticus assessed as bacterial growth inhibition

For C=C[C@@]1(C)CCC2=C(C(=O)C=C3C(C)(C)CCC[C@]32O)[C@H]1O, the MIC (Vibrio parahaemolyticus [1]) was 8 µg/mL (≈ 26.5 µM) and the MIC (Vibrio harveyi [2]) was 8 µg/mL (≈ 26.5 µM).

CCCCCCC(O)CCCCCC/C=C/C(O)C1C=C(NC(C)=O)C(=O)O1 (configuration not stated) gave an MIC (Vibrio alginolyticus [3]) of 8 µg/mL (≈ 20.2 µM).

Cc1cc2c(c(=O)[nH]1)O[C@H]([C@@H](O)CC(C)C)O2 was tested, and the MIC (Vibrio natriegens) was 0.001 µg/mL (≈ 0.00418 µM).

With Cc1c(O)c(C)c2c(c1O)C(=O)O[C@](C)(O)[C@H]2C the MIC (Vibrio vulnificus [4]) was 16.6 µg/mL (≈ 65.8 µM) and the MIC (Vibrio vulnificus [5]) was 15.3 µg/mL (≈ 60.7 µM).

For Cc1cc(O)cc(Oc2cc(C)cc(O)c2O)c1 [CORDYOL C], the MIC (Vibrio ichthyoenteri) was 40 µg/mL (≈ 162 µM).

Work on CC(=O)c1ccccc1C[C@@H](O)/C=C/CC(=O)O[C@@H]1/C=C/C=C\C[C@H](O)C[C@@H](O)/C=C/C=C/CCC[C@@H](C)OC(=O)/C=C\C=C\C1 yielded an MIC (Vibrio parahaemolyticus [6]) of 3.12 µg/mL (≈ 4.93 µM) and an MIC (Vibrio vulnificus [7]) of 3.12 µg/mL (≈ 4.93 µM).

For CC(=O)N[C@H]1[C@@H](O[C@]2(C)C=C[C@@H]([C@@H](C)CCC=C(C)C)CC2)O[C@H](CO)[C@@H](O)[C@@H]1O, the “inhibition zone (IZ)” value (Vibrio parahaemolyticus [8]) was 6.1 mm, the MIC (Vibrio anguillarum [9]) was 6.1 µg/mL (≈ 14.3 µM) and the MIC (Vibrio splendidus) was 6.1 µg/mL (≈ 14.3 µM). For the same compound, the MIC (Vibrio harveyi [10]) was 6.1 µg/mL (≈ 14.3 µM).

Compound CC(C)[C@@H](C)/C=C/[C@@H](C)[C@H]1CC[C@H]2C3=CC(=O)[C@@]45C[C@@H](O)CC[C@]4(C)[C@]3(CC[C@]12C)O5 has an MIC (Vibrio brasiliensis) of 16 µg/mL (≈ 37.5 µM).

Compound CC(C)(O)CCCC(C)(O)c1ccc(C(=O)O)cc1O (configuration not stated) has an MIC (Vibrio harveyi [11]) of 4 µg/mL (≈ 14.2 µM), an MIC (Vibrio anguillarum [12]) of 4 µg/mL (≈ 14.2 µM) and an MIC (Vibrio parahaemolyticus [13]) of 4 µg/mL (≈ 14.2 µM).

CC[C@@H](O)/C=C/CC(=O)O[C@@H]1/C=C/C=C\C[C@H](O)C[C@@H](O)/C=C/C=C\CCC[C@@H](C)OC(=O)/C=C\C=C\C1 gave a zone of inhibition at 100 µg/disc (Vibrio vulnificus [14]) of 14.3 mm and a zone of inhibition at 100 µg/disc (Vibrio parahaemolyticus [15]) of 16 mm.

Work on COc1cc(C)c(Oc2cc(C)cc(O)c2)c(O)c1 [CYPERIN] yielded an MBC (Vibrio parahaemolyticus [16]) of 0.312 µM (≈ 0.0812 µg/mL) and an MIC (Vibrio parahaemolyticus [17]) of 0.312 µM (≈ 0.0812 µg/mL).

COc1cc(-c2ccc(O)cc2)c(OC)c(O)c1-c1ccc(O)cc1 [TERPHENYLLIN] was tested, and the “inhibition (INH)” value (Vibrio sp.) was over 80%.

With COC(=O)CCc1oc2cc(O)cc(C)c2c1-c1cc(O)c(C)c(O)c1C the MIC (Vibrio vulnificus [18]) was 64 µg/mL and the MIC (Vibrio harveyi [19]) was 32 µg/mL.

With C[C@@H]1CCC/C=C/[C@@H]2O[C@H](C[C@@H](O)C/C=C\C=C\[C@@H](O)C/C=C/C=C\C(=O)O1)[C@H]2O the MIC (Vibrio vulnificus [20]) was 64 µg/mL (≈ 153 µM), the MIC (Vibrio alginolyticus [21]) was 64 µg/mL (≈ 153 µM) and the MIC (Vibrio parahaemolyticus [22]) was 64 µg/mL (≈ 153 µM).

For O=C(O)c1ccc[nH]1, the MIC (Vibrio cholerae) was 50 µg/mL (≈ 450 µM) and the MIC (Vibrio parahaemolyticus [23]) was 25 µg/mL (≈ 225 µM).

CO[C@H](C)[C@@H](/C=C/C=C/C(=O)N(C)[C@H]1CCCN(C)C(=O)[C@H](C)N(C)C(=O)[C@H](C(C)C)N(C)C1=O)OC gave an MIC (Vibrio parahaemolyticus [24]) of 25 µM (≈ 13.1 µg/mL).

Work on COC(OC)c1ccc2c(c1O)C(=O)c1ccccc1C2=O yielded an MIC (Vibrio vulnificus [25]) of 15.6 µg/mL (≈ 52.3 µM), an MIC (Vibrio rotiferianus [26]) of 15.6 µg/mL (≈ 52.3 µM) and an MIC (Vibrio campbellii [27]) of 15.6 µg/mL (≈ 52.3 µM).

Cc1cc(O)c2c(c1)C(=O)c1cc(O)cc(O)c1C2=O [EMODIN] was tested, and the MIC (Vibrio vulnificus [25]) was 15.6 µg/mL (≈ 57.7 µM), the MIC (Vibrio rotiferianus [26]) was 15.6 µg/mL (≈ 57.7 µM) and the MIC (Vibrio campbellii [27]) was 15.6 µg/mL (≈ 57.7 µM).

Cc1c(O)cc(O)cc1[C@H](C)[C@@H](C)OC=O was tested, and the MIC (Vibrio vulnificus [4]) was 15.7 µg/mL (≈ 70 µM) and the MIC (Vibrio campbellii [28]) was 15.6 µg/mL (≈ 69.6 µM).

Work on CC[C@H](C)/C=C/C1=CC2=C(Cl)C(=O)[C@@]3(C)OC(=O)C(C(=O)[C@@H](C)[C@@H](C)O)=C3C2=CN1NC(=O)c1ccc(O)cc1 yielded an MIC (Vibrio rotiferianus [29]) of 7.3 µg/mL (≈ 12.9 µM).

O=C(O)c1cc(Cl)c[nH]1 was tested, and the MIC (Vibrio cholerae) was 100 µg/mL (≈ 687 µM) and the MIC (Vibrio parahaemolyticus [23]) was 25 µg/mL (≈ 172 µM).

CC1(C)C=Cc2c(ccc3c2[N+]([O-])=C2C3CC34NC(=O)[C@@]5(CCCN5C3=O)C[C@H]4C2(C)C)O1 (some centres not stated) showed an MIC (Vibrio parahaemolyticus [8]; Vibrio parahaemolyticus) of 8 µg/mL (≈ 17.9 µM) and an MIC (Vibrio alginolyticus [30]) of 16 µg/mL (≈ 35.8 µM).

Work on CC(C)[C@H]1C(=O)N(C)[C@@H](C)C(=O)NCCC[C@H](NC(=O)/C=C/C=C/C(=O)O)C(=O)N1C yielded an MIC (Vibrio parahaemolyticus [24]) of 3.13 µM (≈ 1.37 µg/mL).

COC(=O)c1ccc([C@](C)(O)CCCC(C)(C)O)c(O)c1 showed an MIC (Vibrio harveyi [11]) of 4 µg/mL (≈ 13.5 µM), an MIC (Vibrio anguillarum [12]) of 4 µg/mL (≈ 13.5 µM) and an MIC (Vibrio parahaemolyticus [13]) of 4 µg/mL (≈ 13.5 µM).
